Results taken from patent publication US7589096B2, “Azole derivatives” (Banyu Pharmaceutical Co., Ltd., priority 2002, dated 2009).
Where a name gives a salt, the structure may show the parent alone. Read-outs that look alike come from different tables or passages of the source.

What was measured:
human NPY Y5 receptor = molecular target: T1, human NPY Y5 receptor (Homo sapiens, UniProt Q15761); assay: NPY binding inhibition test ([125I]peptide YY binding to membranes of NPY Y5 receptor expression cells); details: [125I]peptideYY, membrane sample, 25° C., 2 hours; read-out: IC50 against specific peptide YY binding
T1 construct: expressed in transfected cells; host or cells: COS-7, CHO and LM(tk-)
T1 sequence (Q15761 1-445): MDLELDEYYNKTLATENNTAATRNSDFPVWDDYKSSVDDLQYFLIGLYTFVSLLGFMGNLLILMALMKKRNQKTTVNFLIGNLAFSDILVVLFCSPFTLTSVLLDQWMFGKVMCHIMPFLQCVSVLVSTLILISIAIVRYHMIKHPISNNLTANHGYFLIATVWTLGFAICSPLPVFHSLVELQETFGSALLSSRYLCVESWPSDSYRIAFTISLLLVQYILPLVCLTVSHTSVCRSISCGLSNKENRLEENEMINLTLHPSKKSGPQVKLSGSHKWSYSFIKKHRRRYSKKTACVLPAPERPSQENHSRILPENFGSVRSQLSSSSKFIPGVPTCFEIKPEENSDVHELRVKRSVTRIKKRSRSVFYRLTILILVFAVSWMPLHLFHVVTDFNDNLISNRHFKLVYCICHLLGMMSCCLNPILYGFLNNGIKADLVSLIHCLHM
From the text: cDNA sequence encoding human NPY Y5 receptor (cf. International patent publication number WO96/16542) was cloned into expression vectors pcDNA3, pRc/RSV (made by invitrogen Inc.) and pCI-neo (made by Promega Inc.). The expression vectors thus obtained were transfected to host cells COS-7, CHO and LM(tk-) (American Type Culture Collection) by cationic lipid method (Proceedings of the National Academy of Sciences of the United States of America, 84: 7413 (1987)) to give NPY Y5 receptor expression cells.
A membrane sample prepared from the cells which expressed NPY Y5 receptor was incubated together with a test compound and [^125I]peptideYY (made by NEN) (20,000 cpm) in man assay buffer (25 mM Tris buffer, pH 7.4, containing 10 mM magnesium chloride, 1 mM phenylmethylsulfonyl fluoride, 0.1% bacitracin and 0.5% bovine serum albumin) at 25° C. for 2 hours, then filtered through a glass filter GF/C and washed with 5 mM Tris buffer (pH7.4) containing 0.3% BSA. The radioactivity of the cake on the glass filter was measured. Non-specific binding was measured in the presence of 1 μM peptide YY, and a 50% Inhibitory Concentration (IC50) of the test compound against specific peptide YY binding was determined (Endocrinology; 131: 2090 (1992)).

[1] = Brain/cerebrospinal fluid transport test; format: in vivo; details: male SD rats, 2 hours after oral administration (10 mg/kg); for concentration at 2 h: rat
Description: A test compound was orally or intravenously administered to male SD rats (7-10 weeks old, 200-400 g), and whole blood was collected from the abdominal aorta of said rats anesthetized with ether at predetermined time, using a heparin-treated syringe. Then, the head skin was cut open, and a dental 30 G needle was inserted between the cervical vertebrae, and it was further inserted into the cavum subarachnoideale. After 50 to 100 μL cerebrospinal fluid had been collected by a 1 ml-syringe through a tube connected to said dental 30 G needle, the brain was extracted. The blood sample was centrifuged (4° C., 6,000 r.p.m., 10 minutes) to collect the plasma, to which was added 3-fold amount of ethanol containing an internal standard, and the mixture was stirred. The brain sample was homogenized after addition of 2 ml water, an aliquot of the homogenate was taken and 3-fold amount of ethanol containing an internal standard was added thereto and stirred. The cerebrospinal fluid was stirred after adding 3-fold amount of ethanol containing an internal standard. The samples thus obtained were allowed to stand at −20° C. for 20 minutes, and then centrifuged (4° C., 12,000 g, 10 minutes). The supernatant was analyzed by LC/MS/MS, and the concentration of the test compound in the plasma, brain, and cerebrospinal fluid were measured by the method using a relative calibration curve.

## O=C1OC2(CCN(c3nc(-c4ccc5ccccc5c4)c[nH]3)CC2)c2ccccc21 [Example 1, 4-(2-naphthyl)-2-[3-oxospiro[isobenzofuran-1(3H),4′-piperidin]-1′-yl]-1H-imidazole hydrochloride]
Human NPY Y5 receptor
  IC50: 1.7 nM

## O=C1OC2(CCN(c3cc(-c4ccnc(-c5ccccc5)c4)[nH]n3)CC2)c2ccccc21 [Example 14, 3-[3-oxospiro[isobenzofuran-1(3H),4′-piperidin]-1′-yl]-5-(2-phenylpyridin-4-yl)-1H-pyrazole]
Human NPY Y5 receptor
  IC50: 1.7 nM

## O=C1OC2(CCN(c3cc(-c4ccnc(-c5ccccc5)n4)[nH]n3)CC2)c2ccccc21 [Example 19, 3-[3-oxospiro[isobenzofuran-1(3H),4′-piperidin]-1′-yl]-5-(2-phenylpyrimidin-4-yl)-1H-pyrazole]
Human NPY Y5 receptor
  IC50: 1.6 nM

## O=C1OC2(CCC(c3cc(-c4ccnc(-c5ccccc5)n4)[nH]n3)CC2)c2ccccc21 (stereo not drawn) [Example 23, trans-3-[3′-oxospiro[cyclohexane-1,1′(3′H)-isobenzofuran]-4-yl]-5-(2-phenylpyrimidin-4-yl)-1H-pyrazole]
Human NPY Y5 receptor
  IC50: 2.7 nM

## O=C1OC2(CCC(c3cc(-c4cncc(-c5ccccc5)n4)[nH]n3)CC2)c2ccccc21 (stereo not drawn) [Example 24, trans-3-[3′-oxospiro[cyclohexane-1,1′(3′H)-isobenzofuran]-4-yl]-5-(6-phenylpyrazin-2-yl)-1H-pyrazole]
Human NPY Y5 receptor
  IC50: 3.9 nM

## O=C1OC2(CCC(c3cc(-c4ccnc(-c5ccccc5)n4)[nH]n3)CC2)c2cnccc21 (stereo not drawn) [Example 29, trans-3-[3-oxospiro[6-azaisobenzofuran-1(3H),1′-cyclohexan]-4′-yl]-5-(2-phenylpyrimidin-4-yl)-1H-pyrazole]
Human NPY Y5 receptor
  IC50: 3.9 nM
[1]
  concentration in the brain: 3.01 nmol/g
[1]; cerebrospinal fluid, read-out: concentration in the cerebrospinal fluid
  concentration at 2 h: 15 nM
[1]; plasma, read-out: concentration in the plasma
  concentration at 2 h: 1160 nM

## O=C1OC2(CCN(c3nc(-c4ccc5ccccc5c4)n[nH]3)CC2)c2ccccc21 [Example 30, 3-(2-naphthyl)-5-[3-oxospiro[isobenzofuran-1-(3H),4′-piperidin]-1′-yl]-1H-1,2,4-triazole]
Human NPY Y5 receptor
  IC50: 4.2 nM

## O=C1OC2(CCC(c3nn4nc(-c5ccccc5F)cc4[nH]3)CC2)c2cnccc21 (stereo not drawn) [Example 34, trans-6-(2-fluorophenyl)-2-[3-oxospiro[6-azaisobenzofuran-1(3H),1′-cyclohexan]-4′-yl]-1H-pyrazolo[2,3-b][1,2,4]-triazole]
Human NPY Y5 receptor
  IC50: 3.5 nM

## O=C1OC2(CCC(c3nn4nc(-c5ccccc5)cc4[nH]3)CC2)c2cnccc21 (stereo not drawn) [Example 35, trans-2-[3-oxospiro[6-azaisobenzofuran-1(3H),1′-cyclohexan]-4′-yl]-6-phenyl-1H-pyrazolo[2,3-b][1,2,4]triazole]
Human NPY Y5 receptor
  IC50: 3.3 nM

## O=C1OC2(CCC(c3nn4nc(-c5ccccc5)cc4[nH]3)CC2)c2ccccc21 (stereo not drawn) [Example 36, trans-2-[3′-oxospiro[cyclohexane-1,1′(3′H)-isobenzofuran]-4-yl]-6-phenyl-1H-pyrazolo[2,3-b][1,2,4]triazole]
Human NPY Y5 receptor
  IC50: 1.8 nM

## O=C1OC2(CCN(c3cc(-c4ccnc(-c5ccccc5)n4)[nH]n3)CC2)c2cnccc21 [Example 45, 3-[3-oxospiro[6-azaisobenzofuran-1(3H),4′-piperidin]-1′-yl]-5-(2-phenylpyrimidin-4-yl)-1H-pyrazole]
Human NPY Y5 receptor
  IC50: 1.5 nM

## O=C1OC2(CCN(c3cc(-c4ccnc(-c5ccccc5F)n4)[nH]n3)CC2)c2cnccc21 [Example 46, 3-[3-oxospiro[6-azaisobenzofuran-1(3H),4′-piperidin]-1′-yl]-5-[2-(2-fluorophenyl)pyrimidin-4-yl]-1H-pyrazole]
Human NPY Y5 receptor
  IC50: 1.5 nM

## O=C1OC2(CCN(c3cc(-c4ccnc(-c5ccc(F)cc5)n4)[nH]n3)CC2)c2cnccc21 [Example 47, 3-[3-oxospiro[6-azaisobenzofuran-1(3H),4′-piperidin]-1′-yl]-5-[2-(4-fluorophenyl)pyrimidin-4-yl]-1H-pyrazole]
Human NPY Y5 receptor
  IC50: 2.2 nM
